In paper PMC6222672, “Pharmacokinetic and Metabolism Studies of 12-Riboside-Pseudoginsengenin DQ by UPLC-MS/MS and UPLC-QTOF-MS^E” (Molecules : A Journal of Synthetic Chemistry and Natural …, 2018):
“Also recorded” adds a separate entry of the source. Where two headings read alike, the source gives them in different places.

Experiments:
[1] = Pharmacokinetic study of RPDQ in rats after intragastric and intravenous administration (UPLC-MS/MS of plasma); type: in vivo, Wistar rats; details: for AUC(0-t): read-out: AUC(0–60); for bioavailability: read-out: F (absolute bioavailability)
Experimental: The experiments on animals were approved by the Review Committee of Animal Care and Use of Jilin University. The study was conducted according to the ethical principles for animal use and care. Wistar rats (200 ± 20 g) were provided by Changchun Yisi Laboratory Animal Co. Ltd. (Changchun, China). All rats were housed in an environmentally controlled room (12 h light/dark cycle; temperature: 22 ± 2 °C; relative humidity: 55 ± 5%), and except during fast before experiments, the rats were fed with standard laboratory food and water ad libitum.
In the pharmacokinetic study, the rats were divided into different groups (n = 6, three males and three females): (1) RPDQ (6 mg/kg, i.g.), (2) RPDQ (12 mg/kg, i.g.), (3) RPDQ (24 mg/kg, i.g.), and (4) RPDQ (0.3 mg/kg, i.v.).
From the fossa orbitalis vein, the whole blood (150 μL) was collected at 0.5, 0.75, 1, 2, 3, 4, 6, 9, 10, 12, 18, 24, 48, and 60 h after oral administration, and 0.25, 0.5, 0.75, 1, 1.5, 2, 2.5, 3, 6, 12, and 24 h after intravenous administration. All the blood samples were anticoagulated with sodium heparin. After collection, the whole blood was centrifuged at 4000 rpm and 4 °C for 20 min to obtain plasma.
Plasma samples (being stored at −20 °C before analysis) were thawed and vortexed at room temperature. The mixture of each plasma sample (50 μL) and 20R-panaxadiol solution (100 ng/mL, 500 μL) was vortexed (2 min) and centrifuged (13,000 rpm, 4 °C, 10 min). The clear supernatant was obtained and transferred into vials, and 2 μL of it were then kept in autosampler at 4 °C and injected for analysis.
The analysis of pharmacokinetic was conducted on a Waters ACQUITY UPLC System coupled with a XEVO TQ-S mass spectrometer equipped with an electrospray ionization source (Waters, Milford, MA, USA). Separation was performed on a Waters BEH C18 UPLC column (2.1 × 50 mm, 1.7 μm) at 40 °C. The mobile phase, 0.1% formic aqueous solution (A) and 0.1% formic acid in acetonitrile (B) in proportions, was adjusted with a gradient elution programme (0 min, 40% B; 0~2 min, 40~100% B; 2~2.5 min, 100% B; 2.5~2.6 min, 100~40% B; 2.6~3.5 min, […]). The flow rate was kept constant at 0.3 mL/min. Chromatography of the RPDQ and IS was performed within 3.5 min. The injection volume was 2 μL. The multiple reaction monitoring (MRM) mode was performed in ESI^+. The main parameters were as follows: capillary voltage: 3000 V; source temperature: 150 °C; desolvation temperature: 300 °C; desolvation gas flow: 800 L/h; cone gas flow: 150 L/h; nebulizer gas flow: 7 bar; collision gas flow: 0.15 mL/min; cone voltage: 35 V and 28 V for RPDQ and IS, respectively; collision energy: 10 eV and 6 eV for RPDQ and IS, respectively. Masslynx V4.1 workstation (Waters, Milford, MA, USA) was used for data acquisition and processing.
Samples containing RPDQ above the upper limit of quantification were diluted and re-analyzed. The pharmacokinetics analysis in non-compartmental mode was conducted by Drug and Statistics (DAS) 3.0 pharmacokinetic software programme (Mathematical Pharmacology Professional Committee of China, Shanghai, China). The concentration versus the time curve was plotted. The time to reach the peak concentration (Tmax) and the maximum plasma concentration (Cmax) were obtained after oral administration. The results are shown as the mean ± standard deviation. The absolute bioavailability (F%) was calculated using the equation (AUCp.o. × Dosei.v.)/(AUCi.v. × Dosep.o.) × 100%.

A549 cells = experiment: MTT cell viability test, A549 cells; type: cell-based; details: 1-200 μM, 44 h
Description: (§1) Antitumor activity test of RPDQ in vitro by using S180, SPC-A-1 and A549 cells
(§2) Since the startmaterial for the semi-synthesis of 12-Riboside-pseudoginsengenin DQ (RPDQ) was pseudoginsengenin DQ (PDQ), the antitumor activities of RPDQ […]
(§3) and PDQ were both tested.
(§4) The SPC-A-1 and S180 tumor cell lines were purchased from Wuhan Procell Life Science & Technology Co,.Ltd. A549 tumor cell lines were purchased from iCell Bioscience Inc (Shanghai) Biological Co., Ltd.
(§5) 2. Experimental procedure
(§6) S180 cells (1 × 10^5 cells/mL) were seeded into a 96-well plate. After 24 h, pretreated with various concentrations of RPDQ or PDQ (1-200 μM) for 44 h at 37℃, and the cells were treated with MTT for 4 h. The formazan crystal product in the cells were dissolved with acid isopropanol. The absorbance was measured at 570 nm with a […]
(§7) SPC-A-1/A549 cells(1×10^5 cells/mL) were seeded into a 96-well plate. After 24 h, pretreated with various concentrations of RPDQ or PDQ (1-200 μM) for 44 h at 37℃ , and the cells were treated with MTT for 4 h. […] The absorbance was measured at 490 nm with a […]
(§8) Cell viability was calculated by the following formula: Cell viability (%)= 1-{(ODcontrolgroup-ODtreatedgroup)/ODcontrol group×100%}.
(§9) All data were processed by statistical software SPSS 17.0. The data were expressed as Mean ± Standard Deviation. The differences between groups were analyzed by one-way analysis of variance. […]

S180 cells = experiment: MTT cell viability test, S180 cells; type: cell-based; details: 1-200 μM, 44 h
Description: as §1, §2, §3, §4, §5, §6, §7, §8, §9

[2] = both sexes, Wistar, rat, plasma, iv, rats, 0.3 mg/kg i.v.
[3] = both sexes, Wistar, rat, plasma, po, rats, 6 mg/kg intragastric
[4] = both sexes, Wistar, rat, plasma, po, rats, 12 mg/kg intragastric
[5] = both sexes, Wistar, rat, plasma, po, rats, 24 mg/kg intragastric

CC(C)(O)[C@@H]1CC[C@@](C)([C@H]2CC[C@]3(C)[C@@H]2[C@H](O[C@@H]2O[C@H](CO)[C@@H](O)[C@H]2O)C[C@@H]2[C@@]4(C)CC[C@H](O)C(C)(C)[C@@H]4CC[C@]23C)O1 [RPDQ, 20S, 24S-12-O-β-D-ribofuranosyl-dammar-20, 24-epoxy-3β, 12β, 25-triol] showed an AUC(0-inf) [1, 2] of 8330 ± 270 ng·h/mL, a Tmax [1, 2] of 0.25 h and a half-life [1, 2] of 2.94 ± 0.51 h. It also gave an AUC(0-t) [1, 2] of 8300 ± 258 ng·h/mL, a clearance ([1]; both sexes, Wistar, rat, plasma, iv, rats, 0.3 mg/kg i.v., read-out: CLz (converted)) of 0.667 mL/min/kg and a Vd ([1]; both sexes, Wistar, rat, plasma, iv, rats, 0.3 mg/kg i.v., read-out: Vz) of 11.52 ± 0.02 L/kg. It also gave an AUC(0-inf) [1, 3] of 9570 ± 546 ng·h/mL, a Tmax [1, 3] of 7 ± 1.55 h and a half-life [1, 3] of 12.6 ± 1.28 h. For the same molecule, the bioavailability ([1]; both sexes, Wistar, rat, plasma, po, rats, 6 mg/kg intragastric vs 0.3 mg/kg i.v.) was 5.55%, the AUC(0-t) [1, 3] was 9210 ± 608 ng·h/mL and the AUC(0-inf) [1, 4] was 17700 ng·h/mL. For the same molecule, the Tmax [1, 4] was 7.5 ± 1.63 h, the half-life [1, 4] was 12.8 ± 0.56 h and the bioavailability ([1]; both sexes, Wistar, rat, plasma, po, rats, 12 mg/kg intragastric vs 0.3 mg/kg i.v.) was 5.15%. For the same molecule, the AUC(0-t) [1, 4] was 17100 ng·h/mL, the AUC(0-inf) [1, 5] was 42600 ng·h/mL and the Tmax [1, 5] was 7 ± 1.55 h. It also gave a half-life [1, 5] of 13.7 ± 1.11 h, a bioavailability ([1]; both sexes, Wistar, rat, plasma, po, rats, 24 mg/kg intragastric vs 0.3 mg/kg i.v.) of 6.08% and an AUC(0-t) [1, 5] of 40400 ng·h/mL. It also gave a concentration at 6 h ([1]; both sexes, Wistar, rat plasma sample collected at 6 h after an oral dose of 12 mg/kg) of 1000 ng/mL, a CLz ([1]; rats, 6 mg/kg intragastric) of 10.5 ± 0.6 mL/min/kg and a Vz ([1]; rats, 6 mg/kg intragastric) of 11.45 ± 1.55 L/kg. The CLz ([1]; rats, 12 mg/kg intragastric) was 11.3 ± 0.367 mL/min/kg, the Vz ([1]; rats, 12 mg/kg intragastric) was 12.53 ± 0.59 L/kg and the CLz ([1]; rats, 24 mg/kg intragastric) was 9.5 ± 0.733 mL/min/kg. For the same molecule, the Vz ([1]; rats, 24 mg/kg intragastric) was 11.28 ± 1.69 L/kg, the “time at which RPDQ could still be quantified in plasma” value ([1]; rats, after gastrointestinal administration) was 60 h and the “anticancer / anti-proliferation effect” value (A549 cells) was “good anti-proliferation effects; also recorded: significant anticancer activity”. For the same molecule, the “anticancer / anti-proliferation effect” value (S180 cells) was “good anti-proliferation effects; also recorded: significant anticancer activity”.
